For three compounds, IC50 and Activity results are on record in ChEMBL document CHEMBL4334461, “Taicrypnacids A and B, a Pair of C37 Heterodimeric Diterpenoid Stereoisomers from Taiwania cryptomerioides” (J Nat Prod, 2019).

The structures appear in SMILES notation. Calls of active or inactive are those of the source. The rule behind the calls is not given here.

Series [1] concerns U2OS. The series can be described thus: Cytotoxicity against human U2OS cells measured after 24 hrs by MTT assay. Format: functional, cell-based. Background: Tetrazolium assays rely on reduction of a dye to a coloured formazan, in cell work by metabolically active cells.
For series [2], the system named is HCT-116. The series can be described thus: Cytotoxicity against human HCT116 cells measured after 24 hrs by MTT assay. The note with it: HCT-116, 24 h. The series is classed as functional, cell-based.
For series [3], the system named is MCF7. The series can be described thus: Cytotoxicity against human MCF7 cells measured after 24 hrs by MTT assay. Format: functional, cell-based. The following applies: MCF7, 24 h.
Series [4] concerns MCF7. The series can be described thus: Induction of ROS-mediated autophagy in human MCF7 cells assessed as increase in LC3-2/LC3-1 ratio. Format: functional, cell-based.
Series [5] has as its system MCF7. The series can be described thus: Induction of endoplasmic reticular stress in human MCF7 cells assessed as upregulation of GRP78 by Western blot analysis. Format: functional, cell-based.
In series [6] the test system is MCF7. As to the kind of experiment: Induction of ROS-mediated autophagy in human MCF7 cells assessed as increase in autophagosome numbers. The series is classed as functional, cell-based.
The test system of series [7] is MCF7. As to the kind of experiment: Induction of apoptosis in human MCF7 cells assessed as activation of cleaved caspase-9. The series is classed as functional, cell-based.
Series [8] has as its system MCF7. As to the kind of experiment: Induction of morphological changes in human MCF7 cells assessed as change in vacuole at 5 to 20 uM measured after 24 hrs by optical microscopy analysis. Format: functional, cell-based.
Series [9] concerns MCF7. The series can be described thus: Induction of endoplasmic reticular stress in human MCF7 cells assessed as upregulation of XBP1s by Western blot analysis. Format: functional, cell-based.
For series [10], the system named is MCF7. As to the kind of experiment: Induction of mitochondria-mediated apoptosis in human MCF7 cells. The series is classed as functional, cell-based.
Series [11] deals with MCF7. As to the kind of experiment: Induction of apoptosis in human MCF7 cells assessed as activation of cleaved caspase-7. The series is classed as functional, cell-based.
In series [12] the test system is MCF7. The series can be described thus: Induction of apoptosis in human MCF7 cells assessed as activation of cleaved caspase-3. Format: functional, cell-based.
Series [13] deals with MCF7. As to the kind of experiment: Induction of cell death in human MCF7 cells assessed as increase in ROS level measured after 24 hrs by DCFHDA probe based flow cytometry. The series is classed as functional. For orientation: Flow cytometry measures light scatter and fluorescence of single cells or particles in a stream.
In series [14] the test system is MCF7. As to the kind of experiment: Induction of mitochondrial morphological changes in human MCF7 cells assessed as dilation of mitochondria at 5 to 20 uM measured after 24 hrs by Mito-tracker and Hoechst 33342 staining based confocal microscopy. Format: functional, cell-based.
In series [15] the test system is MCF-10A. As to the kind of experiment: Cytotoxicity against human MCF10A cells at 3.125 to 50 uM measured after 24 hrs by MTT assay. Format: cell-based.
Series [16] has as its system MCF7. The series can be described thus: Induction of endoplasmic reticular stress in human MCF7 cells assessed as upregulation of IRE1a by Western blot analysis. Format: functional, cell-based.
In series [17] the test system is MCF7. As to the kind of experiment: Induction of endoplasmic reticulum vacuolation in human MCF7 cells assessed as increase in vacuole formation at 5 to 20 uM measured after 24 hrs by ER-tracker and Hoechst 33342 staining based confocal microscopy. The series is classed as functional, cell-based.
Series [18] deals with MCF7. The series can be described thus: Induction of apoptosis in human MCF7 cells assessed as activation of cleaved PARP. The series is classed as functional, cell-based.
For series [19], the system named is MCF7. As to the kind of experiment: Induction of ROS-mediated autophagy in human MCF7 cells assessed as downregulation of p62. Format: functional, cell-based.
The subject of series [20] is MCF7. As to the kind of experiment: Induction of cell death in human MCF7 cells assessed as increase in intracellular calcium measured after 24 hrs by Fluo-4/AM probe based confocal microscopic analysis. Format: functional.
The subject of series [21] is MCF7. The series can be described thus: Induction of endoplasmic reticular stress in human MCF7 cells assessed as upregulation of CHOP by Western blot analysis. The series is classed as functional, cell-based. For orientation: A western blot detects proteins with antibodies after separation by electrophoresis.

The term IC50 denotes the midpoint of a concentration-inhibition curve. Lower therefore signals greater potency. On to `C=C1CC[C@@H]2[C@](C)(CCC[C@@]2(C)C(=O)OC)[C@H]1C/C=C(\C)[C@@H]1C[C@@H]2C[C@H]3C(C)(C)CCC[C@]3(C)c3ccc(O)c(c32)O1`, for which the IC50 in [1], in series [2] and in series [3] was > 50 µM in each case.

As to `C=C1CC[C@@H]2[C@](C)(CCC[C@@]2(C)C(=O)O)[C@H]1C/C=C(\C)[C@@H]1C[C@@H]2C[C@H]3C(C)(C)CCC[C@]3(C)c3ccc(O)c(c32)O1`, the result in series [4], in series [5], in [6], in series [7], in series [8] and in series [9] was Active. The result in series [10], in [11], in series [12], in series [14], in series [16] and in [17] was Active. The result in series [18], in [19] and in series [21] was Active. In addition, the IC50 came to 8.4 µM in [1], 7.5 µM in [2] and 7.4 µM in [3]. The Activity result in series [13] is “Dose-dependent effect”; in series [15], “Toxic”; in series [20], “Dose-dependent effect”.

In the case of `C=C1CC[C@@H]2[C@](C)(CCC[C@@]2(C)C(=O)O)[C@H]1C/C=C(\C)[C@H]1C[C@H]2C[C@H]3C(C)(C)CCC[C@]3(C)c3ccc(O)c(c32)O1`, the figures for the IC50 in series [1], in series [2] and in series [3] were 9.7 µM, 7.8 µM and 9.9 µM, respectively.
